Laboratory results as given in patent publication US20250160318A1, “CRYOPRESERVATION SOLUTION AND USE THEREOF IN REDUCING ISCHEMIA-REPERFUSION INJURY (IRI) OF CELL, TISSUE, OR ORGAN” (Third Affiliated Hospital, Sun Yat-sen University, priority 2023, published 2025).

What was measured:
hUC-MSCs [1] = assay: Culture of hUC-MSCs plated after 72 h cryopreservation (cell status by light microscopy, cell number after 3 days); type: cell-based, human; settings: hUC-MSCs after 72 h cryopreservation in Hibernate-A plus metabolite, 37° C., FIG. 3
Source text: (§1) Cells used in this experiment were: hUC-MSCs (donated umbilical cord tissues from the Biotherapy Center of the Third Affiliated Hospital of Sun Yat-sen University and newborns).
(§2) The number of cells used in this experiment was: 1×10^6 cells.
(§3) The basic cryopreservation solution used in this experiment was Hibernate™-A medium (Thermofisher, catalog number: GIBCO A1247501), and the components were shown in Table 1.
(§4) The experimental groups of this example included: Hibernate™-A, Hibernate™-A+TUDCA, Hibernate™-A+QCA, and Hibernate™-A+Phosphocholine.
(§5) The experimental operation of this example included: 1 mL of the resuspended hUC-MSCs cells in Hibernate™-A basic cryopreservation solution with the above-mentioned specified metabolites added were placed in a 5 mL EP tube, allowed to stand at room temperature for 20 min, and then placed in a 4° C. refrigerator shaker for slow shaking to allow cryopreservation for 72 h. After cryopreservation for 72 h, the cells were centrifuged and counted with trypan blue to calculate the cell survival rate, and then plated on a 96-well plates for CCK8 cell proliferation assay. The remaining cells were continued to be plated on a 6-well plate and placed in a 37° C. cell culture incubator to observe the subsequent cell status.

hUC-MSCs [2] = assay: Immediate cell survival rate of hUC-MSCs by trypan blue counting after 72 h cryopreservation at 4° C.; type: cell-based, human; settings: metabolite added to Hibernate-A basic cryopreservation solution, FIG. 3
Source text: as §1, §2, §3, §4, §5

rat liver = assay: Static cold storage and rewarming/reperfusion of isolated rat liver (H&E sectioning, TUNEL staining); settings: phosphocholine supplemented during rewarming/reperfusion, 4° C. 48 h, perfused 37° C. 2 h, FIGS. 8A-8C
Description: 2-3 month old male/female SD rats or 2-3 month old golden hamsters were fasted overnight and anesthetized by inhalation of isoflurane, and then given 50 IU of heparin. The bile duct was cannulated with a PE-10 catheter, and the portal vein was cannulated with a 22-G Introcan catheter. The liver was washed with physiological saline, UW, or UW supplemented with phosphocholine (50 μM) and collected. A perfusion system was established in a circulation mode, and 250 mL of a Krebs-Henseleit (KH) bicarbonate buffer or KH buffer supplemented with phosphocholine (500 μM) was prepared. Oxygenation was conducted in a mixed gas of 95% O2 and 5% CO2 through a fiber oxygenator to a partial pressure of oxygen exceeding 500 mmHg. The liver was stored at 4° C. for 48 h, equilibrated at room temperature for 10 min, and perfused at 37° C. for 2 h. A flow rate was set in pressure control mode, and a portal vein pressure (PVP) was kept constant at 12 mmHg. The flow rate and PVP were automatically monitored and recorded. The portal vein resistance (PVR) was calculated as follows: PVR (mmHg/mL×min×g liver)=PVP (12 mmHg)/portal vein flow rate (mLxminxg liver). Liver samples were fixated in 4% paraformaldehyde for subsequent H&E sectioning and TUNEL staining. […]

Hepatocytes = assay: Cryopreservation and rewarming of hepatocytes (MitoNeoD mitochondrial ROS, real-time imaging of cell membrane integrity); type: cell-based; settings: UW solution with 50 μM phosphocholine, 4° C. 12 h, rewarming medium with 500 μM phosphocholine, 37° C. 2 h, FIGS. 7A-7B
Description: Hepatocytes cultured under normal conditions served as a 37° C. control. For cold exposure treatment, the medium was replaced with UW solution at room temperature for 15 min, and the cells in UW solution (containing 50 μM phosphocholine) were transferred to a 4° C. refrigerator for 12 h. Rewarming involved taking cells out of the refrigerator and culturing with a pre-chilled medium (containing 500 μM phosphocholine). After allowing to stand for 15 min at room temperature, the cells were transferred to a 37° C. incubator for 2 h. The integrity of cell membranes is dynamically monitored by Real-time imaging using MitoNeoD live cell dye to assess the mitochondrial ROS and transfection of a plasmid carrying the mNeonGreen tag and the phospholipase Cδ PH domain.

SMILES | total number of cells obtained after being plated and cultured for 3 days versus basic cryopreservation solution control (hUC-MSCs [1]) | immediate cell survival rate versus basic cryopreservation solution control (hUC-MSCs [2]) | cell apoptosis versus control group (TUNEL staining) (rat liver) | sinus cavity (H&E sections) (rat liver) | ROS in hepatocyte mitochondria (Hepatocytes; MitoNeoD) | integrity of hepatocyte membrane (Hepatocytes; mNeonGreen-PLCδ PH domain imaging)
O=C(O)c1ccnc2ccccc12 [QCA, quinoline-4-carboxylic acid] | significantly more | slightly lower |  |  |  | 
C[C@H](CCC(=O)NCCS(=O)(=O)[O-])[C@H]1CC[C@H]2[C@@H]3[C@@H](O)C[C@@H]4C[C@H](O)CC[C@]4(C)[C@H]3CC[C@]12C.[Na+] [TUDCA, sodium tauroursodeoxycholate] | significantly more | significantly higher |  |  |  | 
C[N+](C)(C)CCOP(=O)([O-])O [phosphocholine] | significantly more | slightly lower | milder | apparently normal | reduce | maintain the integrity
